US9708314B2, “Heterocyclic amide compound” (NISSAN CHEMICAL INDUSTRIES, LTD., priority 2013, dated 2017)

Columns and labels:
Format in all cases: in vivo
Scirpus juncoides = assay: Test Example 1: herbicidal activity, application before weed generation in submerged conditions; details: Application herbicide amount 320 g/ha; Seventeenth Table
In short: (§1)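 Water-diluted emulsion formulation is applied onto flood water (4 cm deep) covering alluvial soil on the day weed seeds are sown, after transplanting 2.5 leaf stage rice. Rates are expressed per hectare. Injury or control is graded 0–5 three weeks later.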

[1] = tested on: Echinochloa oryzacola Vasing.; assay: as above; details: Application herbicide amount 320 g/ha; Seventeenth Table
In short: as §1

Monochoria vaginalis = assay: as above; details: Application herbicide amount 320 g/ha; Seventeenth Table
In short: as §1

Chenopodium album = assay: Test Example 4: herbicidal effect by application to foliage (diluvial soil, plastic box); details: Application herbicide amount 320 g/ha
In short: (§2)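 Greenhouse plants (25° C. to 30° C., 14 d, diluvial soil) receive a foliar spray of water-diluted emulsifiable formulation at defined g/ha. Grading after 3 weeks uses a six-step herbicidal-ratio scale, with 4 covering 70% to <90% and 1 covering 5% to <20%.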

Avena fatua = assay: as above; details: Application herbicide amount 320 g/ha
In short: as §2

Lolium multiflorum Lam. = assay: as above; details: Application herbicide amount 320 g/ha
In short: as §2

Alopecurus myosuroides = assay: as above; details: Application herbicide amount 320 g/ha
In short: as §2

Veronica persica = assay: as above; details: Application herbicide amount 320 g/ha
In short: as §2

Setaria viridis = assay: as above; details: Application herbicide amount 320 g/ha
In short: as §2

Galium spurium = assay: as above; details: Application herbicide amount 320 g/ha
In short: as §2

Digitaria ciliaris = assay: as above; details: Application herbicide amount 320 g/ha
In short: as §2

Apera spica-venti. = assay: as above; details: Application herbicide amount 320 g/ha
In short: as §2

[2] = tested on: Echinochloa crus-galli var. crus-galli; assay: as above; details: Application herbicide amount 320 g/ha
In short: as §2

Abutilon theophrasti = assay: as above; details: Application herbicide amount 320 g/ha
In short: as §2

Triticum aestivum = assay: Test Example 4: effect on crop by application to foliage (diluvial soil, plastic box); details: Application herbicide amount 320 g/ha; effect on crop
In short: as §2

Zea mays = assay: as above; details: Application herbicide amount 320 g/ha; effect on crop
In short: as §2

Brassica campestris L. = assay: as above; details: Application herbicide amount 320 g/ha; effect on crop
In short: as §2

[3] = tested on: Beta vulgaris ssp. vulgaris; assay: as above; details: Application herbicide amount 320 g/ha; effect on crop
In short: as §2

[4] = tested on: directly sowed Oryza sativa; assay: as above; details: Application herbicide amount 320 g/ha; effect on crop
In short: as §2

Glycine max = assay: as above; details: Application herbicide amount 320 g/ha; effect on crop
In short: as §2

[5] = tested on: transplanted Oryza sativa; assay: Test Example 1: effect on crop, application before weed generation in submerged conditions; details: Application herbicide amount 320 g/ha; Seventeenth Table
In short: as §1

## CN(C)c1nnc2c(C(=O)Nc3nnco3)ccc(C(F)(F)F)n12 [1-103]
Scirpus juncoides
  B: Scirpus juncoides (herbicidal effect grade): 4 (Herbicidal ratio of 70% or more and less than 90%)
[1]
  A: Echinochloa oryzicola Vasing. (herbicidal effect grade): 5 (Herbicidal ratio of 90% or more (almost completely withered))
Monochoria vaginalis
  C: Monochoria vaginalis (herbicidal effect grade): 4 (Herbicidal ratio of 70% or more and less than 90%)
Chenopodium album
  O: 5 (Herbicidal ratio of 90% or more (almost completely withered))
Avena fatua
  I: 4 (Herbicidal ratio of 70% or more and less than 90%)
Lolium multiflorum Lam.
  K: 3 (Herbicidal ratio of 40% or more and less than 70%)
Alopecurus myosuroides
  J: 2 (Herbicidal ratio of 20% or more and less than 40%)
Veronica persica
  R: 5 (Herbicidal ratio of 90% or more (almost completely withered))
Setaria viridis
  G: 5 (Herbicidal ratio of 90% or more (almost completely withered))
Galium spurium
  Q: 4 (Herbicidal ratio of 70% or more and less than 90%)
Digitaria ciliaris
  F: 5 (Herbicidal ratio of 90% or more (almost completely withered))
Apera spica-venti.
  L: 3 (Herbicidal ratio of 40% or more and less than 70%)
[2]
  H: 5 (Herbicidal ratio of 90% or more (almost completely withered))
Abutilon theophrasti
  M: 4 (Herbicidal ratio of 70% or more and less than 90%)
Triticum aestivum
  e: 3 (Herbicidal ratio of 40% or more and less than 70%)
Zea mays
  b: 1 (Herbicidal ratio of 5% or more and less than 20%)
Brassica campestris L.
  g: 5 (Herbicidal ratio of 90% or more (almost completely withered))
[3]
  f: 5 (Herbicidal ratio of 90% or more (almost completely withered))
[4]
  d: 4 (Herbicidal ratio of 70% or more and less than 90%)
Glycine max
  c: 2 (Herbicidal ratio of 20% or more and less than 40%)
[5]
  a: transplanted Oryza sativa (effect on crop grade): 3 (Herbicidal ratio of 40% or more and less than 70%)

## Cc1nnc(NC(=O)c2ccc(C(F)(F)F)n3c(CC4CC4)nnc23)o1 [1-104]
Scirpus juncoides
  B: Scirpus juncoides (herbicidal effect grade): 3 (Herbicidal ratio of 40% or more and less than 70%)
[1]
  A: Echinochloa oryzicola Vasing. (herbicidal effect grade): 4 (Herbicidal ratio of 70% or more and less than 90%)
Monochoria vaginalis
  C: Monochoria vaginalis (herbicidal effect grade): 2 (Herbicidal ratio of 20% or more and less than 40%)
Chenopodium album
  O: 5 (Herbicidal ratio of 90% or more (almost completely withered))
Avena fatua
  I: 4 (Herbicidal ratio of 70% or more and less than 90%)
Lolium multiflorum Lam.
  K: 1 (Herbicidal ratio of 5% or more and less than 20%)
Alopecurus myosuroides
  J: 1 (Herbicidal ratio of 5% or more and less than 20%)
Veronica persica
  R: 4 (Herbicidal ratio of 70% or more and less than 90%)
Setaria viridis
  G: 5 (Herbicidal ratio of 90% or more (almost completely withered))
Galium spurium
  Q: 3 (Herbicidal ratio of 40% or more and less than 70%)
Digitaria ciliaris
  F: 5 (Herbicidal ratio of 90% or more (almost completely withered))
Apera spica-venti.
  L: 2 (Herbicidal ratio of 20% or more and less than 40%)
[2]
  H: 5 (Herbicidal ratio of 90% or more (almost completely withered))
Abutilon theophrasti
  M: 4 (Herbicidal ratio of 70% or more and less than 90%)
Triticum aestivum
  e: 2 (Herbicidal ratio of 20% or more and less than 40%)
Zea mays
  b: 0 (Herbicidal ratio of 5% or less (almost no effect))
Brassica campestris L.
  g: 4 (Herbicidal ratio of 70% or more and less than 90%)
[3]
  f: 4 (Herbicidal ratio of 70% or more and less than 90%)
[4]
  d: 4 (Herbicidal ratio of 70% or more and less than 90%)
Glycine max
  c: 3 (Herbicidal ratio of 40% or more and less than 70%)
[5]
  a: transplanted Oryza sativa (effect on crop grade): 0 (Herbicidal ratio of 5% or less (almost no effect))
